Results from patent publication US11504382B2, “Tricyclic inhibitors of Hepatitis B virus” (Antios Therapeutics, Inc., priority 2018, dated 2022).

System: HBV
Assay: HBV inhibition assay in HepAD38 cells (extracellular HBV DNA by direct qPCR)
Format: cell-based, Hepatitis B virus
Conditions: 0.05 μM, 96 hours, relative to non-treated reference

SMILES	Anti HBV Activity (conc μM)
CCOC(=O)N1CC2COc3c(cn(C)c3C(=O)Nc3ccc(F)c(F)c3)S(=O)(=O)NC2C1 (single isomer, unassigned) [Example E37, Ethyl 8-((3,4-difluorophenyl)carbamoyl)-7-methyl-3a,4,10,10a-tetrahydro-1H,7H-dipyrrolo[3,4-b:3′,4′-f][1,4,5]oxathiazocine-2(3H)-carboxylate 5,5-dioxide (Chiral 3aS,10aS or 3aR,10aR - Stereochemistry unknown)]	A (0.05) (HBV inhibition greater than 50% at the concentration indicated in the table)

Same assay, conditions: 0.1 μM, 96 hours, relative to non-treated reference

SMILES	Anti HBV Activity (conc μM)
Cn1cc2c(c1C(=O)Nc1ccc(F)c(F)c1)OCC1CCCC1NS2(=O)=O (single isomer, unassigned) [Example E34, N-(3,4-difluorophenyl)-2-methyl-5a,6,7,8,8a,9-hexahydro-2H,5H-cyclopenta[f]pyrrolo[3,4-b][1,4,5]oxathiazocine-1-carboxamide 4,4-dioxide (Chiral 5aS,8aR or 5aR,8aS - Stereochemistry unknown)]	B (0.1) (HBV inhibition less than 50% at the concentration indicated in the table)
Cn1cc2c(c1C(=O)Nc1ccc(F)c(F)c1)OCC1CCCC1NS2(=O)=O (single isomer, unassigned) [Example E35, N-(3,4-difluorophenyl)-2-methyl-5a,6,7,8,8a,9-hexahydro-2H,5H-cyclopenta[f]pyrrolo[3,4-b][1,4,5]oxathiazocine-1-carboxamide 4,4-dioxide (Chiral 5aS,8aR or 5aR,8aS - Stereochemistry unknown)]	A (0.1) (HBV inhibition greater than 50% at the concentration indicated in the table)
CCOC(=O)N1CC2COc3c(cn(C)c3C(=O)Nc3ccc(F)c(F)c3)S(=O)(=O)NC2C1 (single isomer, unassigned) [Example E38, Ethyl 8-((3,4-difluorophenyl)carbamoyl)-7-methyl-3a,4,10,10a-tetrahydro-1H,7H-dipyrrolo[3,4-b:3′,4′-f][1,4,5]oxathiazocine-2(3H)-carboxylate 5,5-dioxide (Chiral 3aS,10aS or 3aR,10aR - Stereochemistry unknown)]	B (0.1) (HBV inhibition less than 50% at the concentration indicated in the table)

Same assay, conditions: 96 hours, 8-point dose-response curve, read-out: HBV inh EC50

SMILES	EC50 [nM]
Cc1cc(NC(=O)c2c3c(cn2C)S(=O)(=O)NC2CN(C(=O)c4ncoc4C)CCC2CO3)ccc1F (racemic) [Example E144, Trans-N-(4-fluoro-3-methylphenyl)-2-methyl-7-(5-methyloxazole-4-carbonyl)-5,5a,6,7,8,9,9a,10-octahydro-2H-pyrido[3,4-f]pyrrolo[3,4-b][1,4,5]oxathiazocine-1-carboxamide 4,4-dioxide]	< 1000
Cn1cc2c(c1C(=O)Nc1ccc(F)c(F)c1)OCC1CCCC1NS2(=O)=O (single isomer, unassigned) [Example E35, N-(3,4-difluorophenyl)-2-methyl-5a,6,7,8,8a,9-hexahydro-2H,5H-cyclopenta[f]pyrrolo[3,4-b][1,4,5]oxathiazocine-1-carboxamide 4,4-dioxide (Chiral 5aS,8aR or 5aR,8aS - Stereochemistry unknown)]	< 1000

Same assay, conditions: Hepatitis B virus, 0.05 μM, 96 hours, relative to non-treated reference, read-out: Anti HBV Activity (conc μM)

SMILES	inhibition at 0.05 µM [%]
Cn1cc2c(c1C(=O)Nc1cc(F)c(F)c(F)c1)OC[C@H]1CN(C(=O)c3ncco3)C[C@H]1NS2(=O)=O (relative stereo) [Example E50, cis-7-methyl-2-(oxazole-2-carbonyl)-N-(3,4,5-trifluorophenyl)-2,3,3a,4,10,10a-hexahydro-1H,7H-dipyrrolo[3,4-b:3′,4′-f][1,4,5]oxathiazocine-8-carboxamide 5,5-dioxide]	> 50
CCOC(=O)N1C[C@H]2NS(=O)(=O)c3cn(C)c(C(=O)Nc4cc(F)c(F)c(F)c4)c3OC[C@@]2(C)C1 (relative stereo) [Example E85, cis-ethyl 7,10a-dimethyl-8-((3,4,5-trifluorophenyl)carbamoyl)-3a,4,10,10a-tetrahydro-1H,7H-dipyrrolo[3,4-b:3′,4′-f][1,4,5]oxathiazocine-2(3H)-carboxylate 5,5-dioxide]	> 50
CCOC(=O)N1C[C@H]2COc3c(cn(C)c3C(=O)Nc3ccc(F)c(C)c3)S(=O)(=O)N[C@H]2C1 (single isomer, unassigned) [Example E39]	> 50

Same assay, conditions: Hepatitis B virus, 0.1 μM, 96 hours, relative to non-treated reference, read-out: Anti HBV Activity (conc μM)

SMILES	inhibition at 0.1 µM [%]
Cc1cc(NC(=O)c2c3c(cn2C)S(=O)(=O)N[C@@H]2CN(C(=O)c4ccncc4)C[C@@H]2CO3)ccc1F (relative stereo) [Example E55, cis-N-(4-fluoro-3-methylphenyl)-2-isonicotinoyl-7-methyl-2,3,3a,4,10,10a-hexahydro-1H,7H-dipyrrolo[3,4-b:3′,4′-f][1,4,5]oxathiazocine-8-carboxamide 5,5-dioxide]	> 50
Cn1cc2c(c1C(=O)Nc1cc(F)c(F)c(F)c1)OC[C@H]1CN(C(=O)COP(=O)(O)O)C[C@H]1NS2(=O)=O (relative stereo) [Example E72, cis-2-(7-methyl-5,5-dioxido-8-((3,4,5-trifluorophenyl)carbamoyl)-3a,4,10,10a-tetrahydro-1H,7H-dipyrrolo[3,4-b:3′,4′-f][1,4,5]oxathiazocin-2(3H)-yl)-2-oxoethyl Dihydrogen Phosphate]	< 50
Cn1cc2c(c1C(=O)Nc1ccc(F)c(F)c1)OC[C@H]1NCC[C@H]1NS2(=O)=O (single isomer, unassigned) [Example E25]	< 50
CNC(=O)N1CC[C@H]2NS(=O)(=O)c3cn(C)c(C(=O)Nc4ccc(F)c(F)c4)c3OC[C@H]21 (single isomer, unassigned) [Example E26]	< 50

Same assay, conditions: Hepatitis B virus, 96 hours, 8-point dose-response curve, read-out: HBV inh EC50

SMILES	EC50 [nM]
Cn1cc2c(c1C(=O)Nc1cc(F)c(F)c(F)c1)OC[C@H]1CN(C(=O)c3ncco3)C[C@H]1NS2(=O)=O (relative stereo) [Example E50, cis-7-methyl-2-(oxazole-2-carbonyl)-N-(3,4,5-trifluorophenyl)-2,3,3a,4,10,10a-hexahydro-1H,7H-dipyrrolo[3,4-b:3′,4′-f][1,4,5]oxathiazocine-8-carboxamide 5,5-dioxide]	< 1000
Cc1nnc(C(=O)N2C[C@@H]3COc4c(cn(C)c4C(=O)Nc4ccc(F)c(C)c4)S(=O)(=O)N[C@@H]3C2)s1 (relative stereo) [Example E62, cis-N-(4-fluoro-3-methylphenyl)-7-methyl-2-(5-methyl-1,3,4-thiadiazole-2-carbonyl)-2,3,3a,4,10,10a-hexahydro-1H,7H-dipyrrolo[3,4-b:3′,4′-f][1,4,5]oxathiazocine-8-carboxamide 5,5-dioxide]	< 1000
Cn1cc2c(c1C(=O)Nc1cc(F)c(F)c(F)c1)OC[C@H]1CN(c3ncc(O)cn3)C[C@H]1NS2(=O)=O (relative stereo) [Example E84, cis-2-(5-hydroxypyrimidin-2-yl)-7-methyl-N-(3,4,5-trifluorophenyl)-2,3,3a,4,10,10a-hexahydro-1H,7H-dipyrrolo[3,4-b:3′,4′-f][1,4,5]oxathiazocine-8-carboxamide 5,5-dioxide]	< 1000
Cc1cc(NC(=O)c2c3c(cn2C)S(=O)(=O)N[C@@H]2CCN(C(=O)C4(C)COC4)C[C@H]2CO3)ccc1F (relative stereo) [Example E131, Trans-N-(4-fluoro-3-methylphenyl)-2-methyl-8-(3-methyloxetane-3-carbonyl)-5,5a,6,7,8,9,9a,10-octahydro-2H-pyrido[4,3-f]pyrrolo[3,4-b][1,4,5]oxathiazocine-1-carboxamide 4,4-dioxide]	< 1000
Cc1nnc(C(=O)N2CC[C@H]3COc4c(cn(C)c4C(=O)Nc4ccc(F)c(C)c4)S(=O)(=O)N[C@@H]3C2)o1 (relative stereo) [Example E140, Trans-N-(4-fluoro-3-methylphenyl)-2-methyl-7-(5-methyl-1,3,4-oxadiazole-2-carbonyl)-5,5a,6,7,8,9,9a,10-octahydro-2H-pyrido[3,4-f]pyrrolo[3,4-b][1,4,5]oxathiazocine-1-carboxamide 4,4-dioxide]	< 1000
Cc1nnc(C(=O)N2C[C@H]3COc4c(cn(C)c4C(=O)Nc4ccc(F)c(C)c4)S(=O)(=O)N[C@@H]3C2)o1 (relative stereo) [Example E146, Trans-N-(4-fluoro-3-methylphenyl)-7-methyl-2-(5-methyl-1,3,4-oxadiazole-2-carbonyl)-2,3,3a,4,10,10a-hexahydro-1H,7H-dipyrrolo[3,4-b:3′,4′-f][1,4,5]oxathiazocine-8-carboxamide 5,5-dioxide]	< 1000
CCOC(=O)N1C[C@H]2COc3c(cn(C)c3C(=O)Nc3ccc(F)c(C)c3)S(=O)(=O)N[C@H]2C1 (single isomer, unassigned) [Example E39]	< 1000
